Patent US6455559B1, “Phenylacetamido-pyrazole derivatives, process for their preparation and their use as antitumor agents” (Pharmacia Italia S.p.A., priority 2001, dated 2002)

Target: cdk2/Cyclin A (Homo sapiens, UniProt P24941)
Test: inhibition assay of cdk2/Cyclin A activity (MultiScreen-PH phosphocellulose filter plate, histone H1, P33γ-ATP)
Type: biochemical
Details: tested against cdk2/A; read-out: inhibitory activity, expressed as IC50
Protocol: The inhibiting activity of putative cdk/cyclin inhibitors and the potency of selected compounds was determined through a method of assay based on the use of the MultiScreen-PH 96 well plate (Millipore), in which phosphocellulose filter paper was placed at each well bottom allowing binding of positive charged substrate after a washing/filtration step.
When a radioactivity labelled phosphate moiety was transferred by the ser/threo kinase to the filter-bound histone, light emitted was measured in a scintillation counter.
The inhibition assay of cdk2/Cyclin A activity was performed according to the following protocol.
Kinase reaction: 1.5 μM histone H1 substrate, 25 μM ATP (0.5 uCi P33γ-ATP), 100 ng Cyclin A/cdk2 complex, 10 μM inhibitor in a final volume of 100 μl buffer (TRIS HCl 10 mM pH 7.5, MgCl2 10 mM, 7.5 mM DTT) were added to each well of a 96 U bottom well plate. After 10 minutes at 37° C. incubation, reaction was stopped by 20 μl EDTA 120 mM.
Capture: 100 μl were transferred from each well MultiScreen plate, to allow substrate binding phosphocellulose filter. […]
Detection: filters were allowed to dry at 37° C., then 100 μl/well scintillant were added and 33P labelled histone H1 was detected by radioactivity counting in the Top-Count instrument.
Results: data were analysed and expressed as % inhibition referred to total activity of enzyme (=100%).

IC50: 8 nM
Structure (SMILES): C[C@H](C(=O)Nc1cc(C2CC2)[nH]n1)c1ccc(N2CCOC2=O)cc1 [(2S)-N-(5-cyclopropyl-1H-pyrazol-3-yl)-2-[4-(2-oxo-1,3-oxazolidin-3-yl)phenyl]propanamide]
